Several values for one entry are separate records, joined by “and”; a condition that tells them apart may be missing. Identical values can stand only once.

In the experiment the target is Voltage-dependent L-type calcium channel subunit alpha-1C (Rattus norvegicus, UniProt P22002).
Sequence of Voltage-dependent L-type calcium channel subunit alpha-1C (P22002 whole entry): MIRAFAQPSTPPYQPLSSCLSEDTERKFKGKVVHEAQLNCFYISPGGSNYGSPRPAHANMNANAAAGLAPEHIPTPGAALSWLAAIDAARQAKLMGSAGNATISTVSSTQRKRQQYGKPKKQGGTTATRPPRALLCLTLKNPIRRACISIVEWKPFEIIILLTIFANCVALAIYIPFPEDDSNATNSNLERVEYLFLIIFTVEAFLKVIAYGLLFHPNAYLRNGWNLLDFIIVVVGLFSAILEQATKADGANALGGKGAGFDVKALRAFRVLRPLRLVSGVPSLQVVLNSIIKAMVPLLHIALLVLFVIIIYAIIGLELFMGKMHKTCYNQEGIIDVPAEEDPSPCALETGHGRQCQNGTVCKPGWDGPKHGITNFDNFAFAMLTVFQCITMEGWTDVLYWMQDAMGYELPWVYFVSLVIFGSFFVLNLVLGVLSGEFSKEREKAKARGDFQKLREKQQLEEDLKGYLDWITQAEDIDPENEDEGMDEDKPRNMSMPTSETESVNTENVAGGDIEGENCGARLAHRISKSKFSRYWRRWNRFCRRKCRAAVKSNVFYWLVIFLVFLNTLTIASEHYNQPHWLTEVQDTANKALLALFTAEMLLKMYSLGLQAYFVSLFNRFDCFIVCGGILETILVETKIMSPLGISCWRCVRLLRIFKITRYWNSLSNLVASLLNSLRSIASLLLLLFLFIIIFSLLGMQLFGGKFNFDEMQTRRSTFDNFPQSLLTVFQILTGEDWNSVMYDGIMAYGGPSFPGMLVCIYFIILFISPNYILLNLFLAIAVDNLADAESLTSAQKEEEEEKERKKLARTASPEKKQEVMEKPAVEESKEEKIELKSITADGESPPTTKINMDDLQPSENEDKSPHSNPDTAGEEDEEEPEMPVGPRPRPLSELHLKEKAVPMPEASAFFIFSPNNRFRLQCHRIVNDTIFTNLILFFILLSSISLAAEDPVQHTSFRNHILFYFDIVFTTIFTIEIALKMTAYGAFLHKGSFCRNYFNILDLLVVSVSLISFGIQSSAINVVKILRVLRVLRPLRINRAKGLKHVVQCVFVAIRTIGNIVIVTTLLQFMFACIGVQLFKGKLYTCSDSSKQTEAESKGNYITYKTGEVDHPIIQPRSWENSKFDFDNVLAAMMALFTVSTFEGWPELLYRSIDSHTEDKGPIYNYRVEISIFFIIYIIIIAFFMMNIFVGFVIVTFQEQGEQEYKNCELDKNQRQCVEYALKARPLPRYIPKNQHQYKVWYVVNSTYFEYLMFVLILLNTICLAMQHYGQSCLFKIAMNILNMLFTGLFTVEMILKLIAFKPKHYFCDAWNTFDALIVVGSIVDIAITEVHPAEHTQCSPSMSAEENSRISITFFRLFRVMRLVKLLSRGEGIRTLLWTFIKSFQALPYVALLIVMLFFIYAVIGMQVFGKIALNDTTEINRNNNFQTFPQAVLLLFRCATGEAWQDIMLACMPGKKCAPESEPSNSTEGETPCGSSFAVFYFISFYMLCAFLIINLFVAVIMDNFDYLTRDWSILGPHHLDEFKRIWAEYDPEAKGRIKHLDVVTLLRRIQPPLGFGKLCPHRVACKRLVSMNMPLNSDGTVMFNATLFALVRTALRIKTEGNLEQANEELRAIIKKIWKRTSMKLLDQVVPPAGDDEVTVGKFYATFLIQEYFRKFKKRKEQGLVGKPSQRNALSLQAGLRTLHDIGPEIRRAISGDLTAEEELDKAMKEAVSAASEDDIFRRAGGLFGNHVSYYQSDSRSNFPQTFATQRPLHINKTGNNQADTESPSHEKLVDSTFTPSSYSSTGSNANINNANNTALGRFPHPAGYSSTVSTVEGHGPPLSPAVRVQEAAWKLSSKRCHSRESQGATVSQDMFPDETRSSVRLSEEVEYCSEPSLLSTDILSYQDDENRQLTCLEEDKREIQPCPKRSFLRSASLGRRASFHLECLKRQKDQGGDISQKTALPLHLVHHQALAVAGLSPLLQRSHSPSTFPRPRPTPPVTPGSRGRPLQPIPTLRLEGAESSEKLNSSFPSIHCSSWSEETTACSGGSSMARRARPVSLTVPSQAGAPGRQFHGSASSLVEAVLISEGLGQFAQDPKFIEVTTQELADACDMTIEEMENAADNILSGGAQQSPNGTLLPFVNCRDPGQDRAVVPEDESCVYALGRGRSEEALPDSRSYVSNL
The Ki is a measure of affinity in units of concentration, obtained from inhibition or displacement. Turning to `COc1ccc([C@@H]2Sc3cc(Cl)ccc3N(CCN(C)C)C(=O)[C@@H]2OC(C)=O)cc1` [CAS_96128-92-6], the inhibition constant (Ki) was more than 10 µM.

Regarding `COc1cc2nc(N3CCN(C(=O)c4ccco4)CC3)nc(N)c2cc1OC` [[3H]-Minipress], the Ki is 6 µM and > 10 µM.

With `COc1ccc([C@H]2Sc3cc(Cl)ccc3N(CCN(C)C)C(=O)[C@H]2OC(C)=O)cc1` [l-TA-3090], the inhibitory constant (Ki) is more than 10 µM.

The values are drawn from BindingDB's records for PubMed 2338642 (Marion Merrell Dow, 1990).
